Test results published in PubChem BioAssay AID328 (DTP/NCI, 2004).
Values joined by “and” are separate entries in the source; they are usually repeats but may differ in a detail not shown here. Equal entries are not always repeated. Inconclusive results and toxic doses are left out.

System: BDF1 mice, P388 leukemia ip, median survival T/C
Experiment: NCI In Vivo Anticancer Drug Screen. Data for tumor model P388 Leukemia (intraperitoneal) in B6D2F1 (BDF1) mice
Details: endpoint: median survival time, higher = longer survival
In short: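 In tumour-bearing mice, survival after compound treatment is set against the vehicle group and given as a quotient.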

[1] = dose: 50.0 mg/kg/injection, schedule: Q01DX009 (ip), vehicle: saline with Tween-80
[2] = dose: 100.0 mg/kg/injection, schedule: Q01DX009 (ip), vehicle: saline with Tween-80
[3] = dose: 200.0 mg/kg/injection, schedule: Q01DX009 (ip), vehicle: saline with Tween-80
[4] = dose: 50.0 mg/kg/injection, schedule: Q01DX005 (ip), vehicle: saline with Tween-80
[5] = dose: 100.0 mg/kg/injection, schedule: Q01DX005 (ip), vehicle: saline with Tween-80
[6] = dose: 200.0 mg/kg/injection, schedule: Q01DX005 (ip), vehicle: saline with Tween-80
[7] = dose: 100.0 mg/kg/injection, schedule: Q01DX009 (ip), vehicle: saline
[8] = dose: 200.0 mg/kg/injection, schedule: Q01DX009 (ip), vehicle: saline
[9] = dose: 25.0 mg/kg/injection, schedule: Q01DX009 (ip), vehicle: saline with Tween-80
[10] = dose: 25.0 mg/kg/injection, schedule: Q04DX003 (ip), vehicle: saline with Tween-80
[11] = dose: 50.0 mg/kg/injection, schedule: Q04DX003 (ip), vehicle: saline with Tween-80
[12] = dose: 100.0 mg/kg/injection, schedule: Q04DX003 (ip), vehicle: saline with Tween-80
[13] = dose: 200.0 mg/kg/injection, schedule: Q04DX003 (ip), vehicle: saline with Tween-80
[14] = dose: 400.0 mg/kg/injection, schedule: Q04DX003 (ip), vehicle: saline with Tween-80

Q: For `O=C1CC(Nc2ccccc2)=C([N+](=O)[O-])C(=O)N1`, which T/C [1] is on record?
A: 109 % of control

Q: And the T/C [2]?
A: 102 % of control

Q: What about the T/C [3] of the same compound?
A: 109 % of control

Q: How did the T/C [4] turn out when `O=C(CCC[N+](=O)[O-])c1ccccc1` was run?
A: 113 % of control

Q: What about the T/C [5] of the same compound?
A: 113 % of control

Q: What about the T/C [6] of the same compound?
A: 99 % of control

Q: With `O=C(NO)c1ccncc1` as the compound, how does the T/C [7] read?
A: 120 % of control

Q: And the T/C (dose: 100.0 mg/kg/injection, schedule: Q01DX010 (ip), vehicle: water)?
A: 90 % of control

Q: What about the T/C (dose: 132.0 mg/kg/injection, schedule: Q01DX009 (ip), vehicle: saline) of the same compound?
A: 118 % of control

Q: What about the T/C (dose: 200.0 mg/kg/injection, schedule: Q01DX006 (ip), vehicle: water) of the same compound?
A: 90 % of control

Q: And the T/C [8]?
A: 118 % of control and 120 % of control

Q: And the T/C (dose: 200.0 mg/kg/injection, schedule: Q01DX010 (ip), vehicle: water)?
A: 118 % of control

Q: What about the T/C (dose: 200.0 mg/kg/injection, schedule: Q#A X020 (ip), vehicle: water) of the same compound?
A: 100 % of control

Q: What about the T/C (dose: 222.0 mg/kg/injection, schedule: Q01DX010 (ip), vehicle: water) of the same compound?
A: 113 % of control

Q: And the T/C (dose: 222.0 mg/kg/injection, schedule: Q02DX005 (ip), vehicle: water)?
A: 113 % of control

Q: What about the T/C (dose: 300.0 mg/kg/injection, schedule: Q01DX009 (ip), vehicle: saline) of the same compound?
A: 118 % of control

Q: And the T/C (dose: 300.0 mg/kg/injection, schedule: Q#A X020 (ip), vehicle: water)?
A: 118 % of control

Q: What about the T/C (dose: 335.0 mg/kg/injection, schedule: Q02DX005 (ip), vehicle: water) of the same compound?
A: 109 % of control

Q: And the T/C (dose: 400.0 mg/kg/injection, schedule: Q01DX006 (ip), vehicle: water)?
A: 90 % of control

Q: And the T/C (dose: 400.0 mg/kg/injection, schedule: Q01DX010 (ip), vehicle: water)?
A: 150 % of control

Q: What about the T/C (dose: 500.0 mg/kg/injection, schedule: Q01DX001 (ip), vehicle: water) of the same compound?
A: 109 % of control

Q: And the T/C (dose: 600.0 mg/kg/injection, schedule: Q01DX006 (ip), vehicle: water)?
A: 100 % of control

Q: And the T/C (dose: 600.0 mg/kg/injection, schedule: Q01DX010 (ip), vehicle: water)?
A: 154 % of control

Q: What about the T/C (dose: 750.0 mg/kg/injection, schedule: Q01DX010 (ip), vehicle: water) of the same compound?
A: 154 % of control

Q: What about the T/C (dose: 750.0 mg/kg/injection, schedule: Q02DX005 (ip), vehicle: water) of the same compound?
A: 163 % of control

Q: What about the T/C (dose: 800.0 mg/kg/injection, schedule: Q01DX006 (ip), vehicle: water) of the same compound?
A: 90 % of control

Q: And the T/C (dose: 1000.0 mg/kg/injection, schedule: Q01DX001 (ip), vehicle: water)?
A: 113 % of control

Q: What about the T/C (dose: 1500.0 mg/kg/injection, schedule: Q01DX001 (ip), vehicle: water) of the same compound?
A: 100 % of control

Q: With `c1coc(NC2CCCCC2)n1` as the compound, how does the T/C (dose: 100.0 mg/kg/injection, schedule: Q01DX001 (ip), vehicle: saline with Tween-80) read?
A: 90 % of control

Q: What about the T/C (dose: 200.0 mg/kg/injection, schedule: Q01DX001 (ip), vehicle: saline with Tween-80) of the same compound?
A: 95 % of control

Q: And the T/C (dose: 400.0 mg/kg/injection, schedule: Q01DX001 (ip), vehicle: saline with Tween-80)?
A: 95 % of control

Q: `CCP(=Nc1cc(C(C)(C)C)cc(C(C)(C)C)c1O)(c1ccccc1)c1ccccc1` was tested. Which T/C [1] did it give?
A: 96 % of control

Q: And the T/C [2]?
A: 91 % of control

Q: What about the T/C [3] of the same compound?
A: 89 % of control

Q: `C=CC1C2CCC(C2)C1Cl` (stereo unspecified) was tested. Which T/C (dose: 50.0 mg/kg/injection, schedule: Q01DX009 (ip), vehicle: other) did it give?
A: 100 % of control

Q: What about the T/C (dose: 100.0 mg/kg/injection, schedule: Q01DX009 (ip), vehicle: other) of the same compound?
A: 104 % of control

Q: What about the T/C (dose: 200.0 mg/kg/injection, schedule: Q01DX009 (ip), vehicle: other) of the same compound?
A: 107 % of control

Q: For `CCOCc1nc2nc(Cl)c(Cl)nc2[nH]1`, which T/C (dose: 12.5 mg/kg/injection, schedule: Q01DX009 (ip), vehicle: saline with Tween-80) is on record?
A: 89 % of control and 99 % of control

Q: What about the T/C [9] of the same compound?
A: 89 % of control and 100 % of control

Q: What about the T/C [10] of the same compound?
A: 100 % of control

Q: And the T/C [1]?
A: 86 % of control and 104 % of control and 105 % of control

Q: And the T/C [11]?
A: 98 % of control

Q: And the T/C [2]?
A: 100 % of control

Q: What about the T/C [12] of the same compound?
A: 98 % of control

Q: What about the T/C [13] of the same compound?
A: 89 % of control and 104 % of control

Q: Which results are given for `NC(=O)c1ncc(-c2ccc(Cl)cc2)[nH]c1=O`?
A: T/C [2]: 95 % of control; T/C [3]: 90 % of control; T/C (dose: 400.0 mg/kg/injection, schedule: Q01DX009 (ip), vehicle: saline with Tween-80): 109 % of control

Q: What does the source list for `CC1(C)CCc2c(ccc(C(=O)/C=C\c3ccccc3)c2O)O1`?
A: T/C (dose: 1.25 mg/kg/injection, schedule: Q01DX009 (ip), vehicle: Klucel (hydroxypropylcellulose) (HPC)): 109 % of control; T/C (dose: 2.5 mg/kg/injection, schedule: Q01DX009 (ip), vehicle: Klucel (hydroxypropylcellulose) (HPC)): 107 % of control; T/C (dose: 5.0 mg/kg/injection, schedule: Q01DX009 (ip), vehicle: Klucel (hydroxypropylcellulose) (HPC)): 102 % of control; T/C (dose: 10.0 mg/kg/injection, schedule: Q01DX009 (ip), vehicle: Klucel (hydroxypropylcellulose) (HPC)): 107 % of control; T/C (dose: 20.0 mg/kg/injection, schedule: Q01DX009 (ip), vehicle: Klucel (hydroxypropylcellulose) (HPC)): 100 % of control; T/C (dose: 40.0 mg/kg/injection, schedule: Q01DX009 (ip), vehicle: Klucel (hydroxypropylcellulose) (HPC)): 91 % of control

Q: `COC(OC)c1[nH]c(=S)[nH]c(=O)c1Cc1ccccc1` was tested. Which T/C [12] did it give?
A: 104 % of control

Q: What about the T/C [13] of the same compound?
A: 112 % of control

Q: What about the T/C [14] of the same compound?
A: 112 % of control

Q: What does the source list for `CC1(C)SC2C(NC(=O)Cc3ccccc3)C(=O)N2C1C(=O)O` (stereo unspecified)?
A: T/C [7]: 90 % of control; T/C (dose: 400.0 mg/kg/injection, schedule: Q01DX009 (ip), vehicle: saline): 100 % of control

Q: For `N#CC(C#N)=c1ccc(=C(C#N)C#N)cc1`, which T/C [9] is on record?
A: 108 % of control

Q: What about the T/C [10] of the same compound?
A: 88 % of control

Q: What about the T/C [1] of the same compound?
A: 108 % of control

Q: What about the T/C [11] of the same compound?
A: 92 % of control

Q: What about the T/C [12] of the same compound?
A: 111 % of control

Q: For `O=C(Cn1cc(F)c(=O)[nH]c1=O)N1CCC2(CC1)SSC1(CCN(C(=O)Cn3cc(F)c(=O)[nH]c3=O)CC1)S2`, which T/C [7] is on record?
A: 90 % of control

Q: What about the T/C (dose: 100.0 mg/kg/injection, schedule: Q04DX003 (ip), vehicle: saline) of the same compound?
A: 104 % of control

Q: And the T/C [8]?
A: 95 % of control

Q: And the T/C (dose: 200.0 mg/kg/injection, schedule: Q04DX003 (ip), vehicle: saline)?
A: 95 % of control

Q: And the T/C (dose: 400.0 mg/kg/injection, schedule: Q04DX003 (ip), vehicle: saline)?
A: 104 % of control

Q: How did the T/C [4] turn out when `O=C(O)CS(=O)c1ccc2c3c(cccc13)C(=O)c1ccccc1-2` (stereo unspecified) was run?
A: 87 % of control

Q: What about the T/C [5] of the same compound?
A: 94 % of control

Q: And the T/C [6]?
A: 94 % of control

Q: What does the source list for `Cc1ccsc1/C=N/NC(N)=S`?
A: T/C [11]: 117 % of control; T/C [12]: 117 % of control; T/C [13]: 115 % of control; T/C [14]: 92 % of control
